From US20240201205A1, “METHOD FOR DETECTING NEUROLOGICAL DISEASES USING SUPRAMOLECULE POLYMER THERAPEUTICS” (The Regents of the University of California, priority 2022, published 2024)

Columns and labels:
[1] = target: T1, α-synuclein fibrils isolated from an MSA patient sample (Homo sapiens, UniProt P37840); assay: Cryo-EM co-structures of compounds with α-synuclein fibrils from MSA patient; format: binding; settings: for binding to α-synuclein fibrils (cryo-EM co-structure): fibrils from MSA patient sample, 20 μM ligand
T1 construct: fresh-frozen tissue from the cerebellum of patients clinically and neuropathologically diagnosed with MSA; from tissue; host or cells: cerebellum of MSA patients (sarkosyl-insoluble filament preparation)
Description: MSA filament purification. Filament purification was based on Schweigenhauser et al., 2020^2. Briefly, 1-2 g of fresh-frozen tissue from the cerebellum of patients clinically and neuropathologically diagnosed with MSA was homogenized at 20 mL/g of tissue in 10 mM Tris-HCl (pH 7.4), 800 mM NaCl, 1 mM EGTA, and 10% sucrose. A final concentration of 1% N-laurosarcosinate (w/v) was added to the homogenates, and these mixtures were incubated at 37° C. for 30 minutes. Homogenates were then centrifuged at 10,000 g for 10 minutes, and the supernatant was kept and then centrifuged at 100,000 g for 20 minutes. The pellets were resuspended at 500 μL/g of frozen tissue in 10 mM Tris-HCl (pH 7.4), 800 mM NaCl, 1 mM EGTA, and 10% sucrose. This was followed by another centrifugation at 3,000 g for 5 minutes. The supernatant was kept and diluted threefold with 50 mM Tris-HCl (pH 7.4), 150 mM NaCl, 10% sucrose, and 2% sarkosyl, followed by another centrifugation at 150,000 g for 1 hour. The final pellet resuspended in 30 mM Tris-HCl (pH 7.4) at a concentration of 100 μL/g frozen tissue.
Cryo-EM sample preparation and data collection. Purified frontal cortex and cerebellum tissue was incubated with 20 μM ligand for 45 minutes prior to freezing. For the tau PHF, 3 μL of purified filaments mixed with GTP-1 was added to a glow-discharged 200 mesh 1.2/1.3R Au Quantifoil grid for 10 seconds before blotting for 2 seconds, and then a second 3 μL aliquot was added for 3 seconds and blotted for 1 second before being plunge frozen in liquid ethane using a FEI Vitrobot Mark IV (Thermo Fisher Scientific). For the synuclein ligands, 3 μL of purified filaments mixed with compound was added to a 200 mesh 1.2/1.3R Au Quantifoil grid coated with a 2 nm thick layer of carbon, which had not been glow discharged. After 30 seconds, grids were blotted for 7.5 seconds at room temperature and 100% humidity. Grids were plunge frozen in liquid ethane using a FEI Vitrobot Mark IV. […] A defocus range of 0.8 to 1.8 μm was used with a total exposure time of 2.024 seconds fractionated into 0.025 seconds subframes. The total dose for each movie was 46 electrons/Å^2. Movies were motion-corrected using MotionCor2^3 in Scipion^4 and were Fourier cropped by a factor of 2 to a final pixel size of 0.834 Å per pixel.
Image processing. All image processing was done in RELION 4^5, and the same workflow was used for each dataset. Dose-weighted summed micrographs were imported into RELION 4. The contrast transfer function was estimated using CTFFIND-4.1^6. Filaments were manually picked and then segments were extracted with a box size of 900 pixels downscaled to 300 pixels. Contaminants and segments contributing to straight filaments were separated out using reference-free 2D class averaging. The remaining segments were re-extracted with a box size of 288 pixels without downscaling. An initial model was generated from a cylinder in RELION. One or more rounds of 3D classification with image alignment were performed, with helical rise and […] parameters fixed to eliminate obvious junk particles. One or more rounds of 3D auto-refinement was run using the best map from 3D classification low-pass filtered to 10 Å, allowing rise and twist parameters to vary. Maps were sharpened using the standard post-processing procedures in RELION.
Model building, refinement, and analysis. Prior to ligand placement, a single strand of a previously solved MSA or tau PHF filament structure^2 (PDB: 6XYQ) was refined against the density using Phenix^7. Refinement of the ligand binding pocket was done in COOT^8. Ligands were placed by hand in the density using Chimera^9. This model was then translated to give a stack spanning 5 rungs.

[2] = target: T2, YFP-tagged full length 0N4R-Tau carrying a P301S mutation (T24 cells) (Homo sapiens, UniProt P10636, P618S); assay: Tau-AD high throughput screening (counter screen); format: cell-based; settings: final test concentration of 10 μM; T24 cells transfected with 416-AD11A lysate; 72 h; control is DMSO
T2 construct: C-terminally YFP-tagged full length 0N4R-Tau carrying a P301S mutation (T24 cells); expressed in transfected cells
Description: A fragment of the Middle Tempral Gyrus (MTG) from Alzheimer's Disease (AD) patient 2217 was resuspended in 9 volumes of PBS (ml/g of brain) and homogenized 3×12 seconds using a probe homogenizer (Thomas Scientific) with disposable Omni Tip plastic homogenizing probes (Thomas Scientific Cat No 3409Y77) to generate a 10% brain homogenate (10% AD11-BH). The 10% AD11-BH was clarified of insoluble debris by centrifugation at 800×g for 5 minutes. The resulting supernatant was collected and the protein concentration of this clarified BH (AD11-CBH) was determined by bicinchoninic acid assay (BCA) (Thermo Fisher Cat No. 23227). HEK293 cells stably expressing a C-terminally Clover-tagged truncated 4R-Tau^243-382 transgene containing the P301L and V337M mutations and a C-terminally Ruby-tagged truncated 3R-Tau^243-382 transgene containing the L266V and V337M mutations (128/139 cells) were transfected with the AD11-CBH using lipofectamine 2000 (LF2K) (Thermo Fisher Cat No. 11668500). Briefly, 0.32 μl of LF2K were diluted in 5 μl Opti-MEM (Thermo Scientific Cat No 31985070) per well of a 384-well plate and incubated for 5 min at room temperature (RT). This mixture was added to 0.32 μg of AD11-CBH diluted in 5 μl of PBS per well of a 384-well plate and vortex briefly. The transfection mixture was incubated at room temperature for 90 min. The transfection complexes were subsequently added to a single well of a 384-well plate containing 3500 128/139 cells. After 3 days the cells were harvested, counted and plated at a density of 1 cell/well in a 96-well plate. A clonal cell line containing Clover and Ruby positive Tau aggregates was selected and termed 416-AD11A cells. Following the expansion of these 416-AD11A cells, a cell lysate was prepared by freeze/thaw. The cells from a confluent T175 flask were harvested in 1 ml of PBS containing 1× protease inhibitor cocktail by scraping. The cell suspension was subjected to 4 cycles of freezing in liquid nitrogen for 5 minutes followed by thawing at 37° C. for 5 minutes. The resulting cell lysate was centrifuged at 2000 RPM for 10 minutes to remove the cell debris and the protein concentration of the resulting 416-AD11A lysate was determined by BCA assay and aliquots frozen for future use.
HEK293 cells stably expressing C-terminally YFP-tagged full length 0N4R-Tau carrying a P301S mutation (T24 cells) are plated at a density of 4000 cells per well of a 384-well black walled, clear bottom plate (Greiner Cat No 5678-1091Q) in 60 μl of complete DMEM (DMEM (Corning Cat No 10-013-CV), 10% FBS (VWR Cat No 97068-085, 0.5% Penicillin/streptomycin (Gibco Cat No 15140-122)) containing 0.1 μg/ml Hoechst Dye (Thermo Scientific Cat No H3570). Transfection complexes are prepared by diluting 0.15 μg of 416-AD11A lysate or HEK lysate in 5 μl of PBS per well to be transfected and 0.15 μl of Lipofectamine 2000 (LF2K) (ThermoFisher Cat No 11668500) in 5 μl of Opti-MEM per well to be transfected in separate tubes. The pre-diluted 416-AD11A or HEK lysates and LF2K are subsequently mixed and allowed to incubate for 90 minutes at RT. A 10 μl aliquot of the 416-AD11A or HEK transfection complexes is added to the appropriate wells of the 384-well plate containing the T24 cells using the Bravo liquid handling platform (Agilent). Wells A23-P24 of the 384-well plate are transfected with HEK lysate to act as a reference point for spontaneous aggregation of 0N4R^P301S and for transfection related toxicity. The dilution of test compounds is performed using the Bravo liquid handling platform (Agilent). The control is DMSO in the absence of any test compound. Briefly, 1 μl of each test compound (5 mM stock) in the 384-well test plate was transferred to a 384-well plate (Greiner Cat No 781280) containing 61.5 μl of complete DMEM to generate a working stock of compounds at 80 μM. […]

T2 sequence (P10636 1-383 isoform P10636-6 P243S): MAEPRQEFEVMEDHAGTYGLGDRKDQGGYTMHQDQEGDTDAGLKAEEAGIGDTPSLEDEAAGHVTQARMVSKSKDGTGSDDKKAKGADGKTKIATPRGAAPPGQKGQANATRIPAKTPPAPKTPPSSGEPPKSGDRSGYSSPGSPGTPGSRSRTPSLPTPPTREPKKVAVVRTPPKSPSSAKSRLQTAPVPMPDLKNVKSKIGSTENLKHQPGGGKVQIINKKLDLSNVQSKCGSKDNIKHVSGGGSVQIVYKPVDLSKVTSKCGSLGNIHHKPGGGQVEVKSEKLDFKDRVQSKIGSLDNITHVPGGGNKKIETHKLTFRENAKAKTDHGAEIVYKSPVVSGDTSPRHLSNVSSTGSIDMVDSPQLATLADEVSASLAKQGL

## Cc1nccc2cc(-c3nc(-n4ccc5cccnc5c4=O)c(-c4ccc(C(F)(F)F)cc4)o3)ccc12 [compound 427]
[1]
  binding to α-synuclein fibrils (cryo-EM co-structure): bound to fibrils isolated from an MSA patient sample

## CNC(=O)c1ncc2c(-c3ccccc3)nn(Cc3ccccc3)c2n1 [Compound 248]
[2]
  AD Tau Aggregates (% control): 95 % control

## O=c1nc2c(ccn2C(F)(F)F)cn1-c1nc(-c2ccnc(C3CC3)n2)oc1-c1ccc(F)cc1 [compound 293]
[1]
  binding to α-synuclein fibrils (cryo-EM co-structure): bound to fibrils isolated from an MSA patient sample

## O=c1nc2c(ccn2C(F)(F)F)cn1-c1nc(N2Cc3ccccc3C2)oc1-c1ccc(F)cc1 [Compound 242]
[2]
  AD Tau Aggregates (% control): 99 % control

## Cc1ccnn1-c1nc(-n2cc3ccn(C(F)(F)F)c3nc2=O)c(-c2ccc(F)cc2)o1 [Compound 240]
[2]
  AD Tau Aggregates (% control): 95 % control

## CNC(=O)c1ncc2c(-c3ccc(F)cc3)nn(Cc3cccc(F)c3)c2n1 [Compound 260]
[2]
  AD Tau Aggregates (% control): 95 % control

## CNC(=O)c1ncc2c(-c3cccc4c3OC(F)(F)O4)nn(Cc3ccccc3)c2n1 [Compound 254]
[2]
  AD Tau Aggregates (% control): 100 % control

## CNC(=O)c1ncc2c(-c3ccccc3Cl)nn(-c3ccc(F)cc3)c2n1 [Compound 244]
[2]
  AD Tau Aggregates (% control): 100 % control

## CNC(=O)c1ncc2c(-c3ccc(F)cc3)nn(CC3CCCCC3)c2n1 [Compound 258]
[2]
  AD Tau Aggregates (% control): 110 % control

## CCc1ccccc1-c1nn(-c2ccc(F)cc2)c2nc(C(=O)NC)ncc12 [Compound 245]
[2]
  AD Tau Aggregates (% control): 120 % control

## CC(=O)Nc1ncc2c(-c3ccccc3)nn(Cc3cncc(F)c3)c2n1 [Compound 267]
[2]
  AD Tau Aggregates (% control): 91 % control

## CC(=O)Nc1ncc2c(-c3ccccc3C)nn(Cc3ccccc3)c2n1 [Compound 266]
[2]
  AD Tau Aggregates (% control): 98 % control

## CNC(=O)c1ncc2c(-c3ccc(F)cc3)nn(Cc3ccc(F)cc3)c2n1 [Compound 261]
[2]
  AD Tau Aggregates (% control): 87 % control

## CC(=O)Nc1ncc2c(-c3ccccc3)nn(C(C)c3ccccc3)c2n1 (stereo not drawn) [Compound 265]
[2]
  AD Tau Aggregates (% control): 110 % control

## Cc1ccn(-c2nc(-n3cc4ccn(C(F)(F)F)c4nc3=O)c(-c3ccc(F)cc3)o2)n1 [Compound 241]
[2]
  AD Tau Aggregates (% control): 98 % control

## CC(=O)Nc1ncc2c(-c3ccccc3)nn(CC3CCCCC3)c2n1 [Compound 280]
[2]
  AD Tau Aggregates (% control): 90 % control

## O=C(Cn1cc(-c2ccoc2)c(=O)c2ccc(N3CCCC3)cc21)Nc1ccccc1C(F)(F)F [Compound 149, 2-[3-(furan-3-yl)-4-oxo-7-(pyrrolidin-1-yl)-1,4-dihydroquinolin-1-yl]-N-[2-(trifluoromethyl)phenyl]acetamide]
[1]
  binding to α-synuclein fibrils (cryo-EM co-structure): bound to fibrils isolated from an MSA patient sample

## COC(=O)Nc1ncc2c(-c3ccccc3)nn(-c3ccccc3)c2n1 [Compound 274]
[2]
  AD Tau Aggregates (% control): 94 % control

## CNC(=O)c1ncc2c(-c3ccc(F)cc3)nn(Cc3ccnc(F)c3)c2n1 [Compound 259]
[2]
  AD Tau Aggregates (% control): 99 % control

## CCC(=O)Nc1ncc2c(-c3ccccc3)nn(Cc3ccc(OC)cc3)c2n1 [Compound 269]
[2]
  AD Tau Aggregates (% control): 100 % control

## Cc1cc(-c2nc(-n3cc4ccn(C5CC5)c4nc3=O)c(-c3ccc(F)c(F)c3)o2)ncc1F [Compound 234]
[2]
  AD Tau Aggregates (% control): 85 % control

## CNC(=O)c1ncc2c(-c3cc4c(cnn4C)cc3F)nn(Cc3ccccc3)c2n1 [Compound 253]
[2]
  AD Tau Aggregates (% control): 96 % control

## CNc1nc(=O)n(-c2nc(-c3cccc(Cl)c3)oc2-c2ccc(Cl)c(F)c2)cc1F [Compound 125, 1-(5-(4-chloro-3-fluorophenyl)-2-(3-chlorophenyl)oxazol-4-yl)-5-fluoro-4-(methylamino)pyrimidin-2(1H)-one]
[1]
  binding to α-synuclein fibrils (cryo-EM co-structure): bound to fibrils isolated from an MSA patient sample

## CNC(=O)c1ncc2c(-c3ccnc(C(C)(F)F)n3)nn(-c3ccc(Cl)cc3)c2n1 [Compound 22, 1-(4-chlorophenyl)-3-(2-(1,1-difluoroethyl)pyrimidin-4-yl)-N-methyl-1H-pyrazolo[3,4-d]pyrimidine-6-carboxamide]
[1]; cryo-EM, residues of SEQ ID NO: 9
  binding site on α-synuclein: bound to residues 86-99 of α-synuclein
[1]
  binding to α-synuclein fibrils (cryo-EM co-structure): bound to fibrils isolated from an MSA patient sample

## CC(=O)Nc1ncc2c(-c3ccccc3)nn(Cc3ccncc3)c2n1 [Compound 279]
[2]
  AD Tau Aggregates (% control): 92 % control

## CNC(=O)c1ncc2c(-c3ccccc3)nn(-c3ccc(F)cc3)c2n1 [Compound 246]
[2]
  AD Tau Aggregates (% control): 120 % control
